Reference: ChEMBL document CHEMBL5291721, “A preclinical secondary pharmacology resource illuminates target-adverse drug reaction associations of marketed drugs” (Nat Commun, 2023)

Columns and labels:
[1] = target: 5-hydroxytryptamine receptor 2B (Homo sapiens, UniProt P41595)
[2] = target: T1, Peroxisome proliferator-activated receptor gamma (Homo sapiens, UniProt P37231); assay type: functional
T1 sequence (P37231 whole entry): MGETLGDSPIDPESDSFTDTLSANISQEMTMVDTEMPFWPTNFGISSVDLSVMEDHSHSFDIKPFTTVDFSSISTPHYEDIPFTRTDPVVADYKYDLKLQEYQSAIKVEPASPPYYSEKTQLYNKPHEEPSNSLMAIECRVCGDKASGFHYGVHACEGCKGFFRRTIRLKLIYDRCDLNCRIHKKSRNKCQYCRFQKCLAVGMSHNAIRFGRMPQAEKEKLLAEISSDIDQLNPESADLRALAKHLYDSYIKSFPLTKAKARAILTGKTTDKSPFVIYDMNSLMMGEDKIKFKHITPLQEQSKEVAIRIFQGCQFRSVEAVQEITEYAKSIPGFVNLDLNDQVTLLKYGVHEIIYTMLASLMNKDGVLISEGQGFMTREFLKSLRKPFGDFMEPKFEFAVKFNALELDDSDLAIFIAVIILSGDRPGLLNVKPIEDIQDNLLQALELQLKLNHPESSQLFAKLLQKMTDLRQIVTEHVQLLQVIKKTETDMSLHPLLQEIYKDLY

[3] = target: Beta-3 adrenergic receptor (Homo sapiens, UniProt P13945)
[4] = target: Receptor tyrosine-protein kinase erbB-2 (Homo sapiens, UniProt P04626); assay type: functional
[5] = target: T2, Alpha-2B adrenergic receptor (Homo sapiens, UniProt P18089)
T2 sequence (P18089 whole entry): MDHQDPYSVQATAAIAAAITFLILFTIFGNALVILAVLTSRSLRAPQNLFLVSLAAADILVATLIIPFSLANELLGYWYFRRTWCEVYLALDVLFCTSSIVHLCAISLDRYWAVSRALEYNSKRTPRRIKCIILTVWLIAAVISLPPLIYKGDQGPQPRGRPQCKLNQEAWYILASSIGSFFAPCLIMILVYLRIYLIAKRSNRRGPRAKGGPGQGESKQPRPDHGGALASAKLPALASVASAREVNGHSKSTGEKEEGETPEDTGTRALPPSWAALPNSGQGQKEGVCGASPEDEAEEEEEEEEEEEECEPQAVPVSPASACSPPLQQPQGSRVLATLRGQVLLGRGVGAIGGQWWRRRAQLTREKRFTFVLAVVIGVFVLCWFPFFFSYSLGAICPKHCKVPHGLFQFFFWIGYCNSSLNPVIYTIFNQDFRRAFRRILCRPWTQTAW

[6] = target: Epidermal growth factor receptor (Homo sapiens, UniProt P00533); assay type: functional
Substance-P receptor = Substance-P receptor (Homo sapiens, UniProt P25103)
[7] = target: Neurotensin receptor type 1 (Homo sapiens, UniProt P30989)
Glucocorticoid receptor [8] = target: T3, Glucocorticoid receptor (Homo sapiens, UniProt P04150); assay type: functional
T3 sequence (P04150 whole entry): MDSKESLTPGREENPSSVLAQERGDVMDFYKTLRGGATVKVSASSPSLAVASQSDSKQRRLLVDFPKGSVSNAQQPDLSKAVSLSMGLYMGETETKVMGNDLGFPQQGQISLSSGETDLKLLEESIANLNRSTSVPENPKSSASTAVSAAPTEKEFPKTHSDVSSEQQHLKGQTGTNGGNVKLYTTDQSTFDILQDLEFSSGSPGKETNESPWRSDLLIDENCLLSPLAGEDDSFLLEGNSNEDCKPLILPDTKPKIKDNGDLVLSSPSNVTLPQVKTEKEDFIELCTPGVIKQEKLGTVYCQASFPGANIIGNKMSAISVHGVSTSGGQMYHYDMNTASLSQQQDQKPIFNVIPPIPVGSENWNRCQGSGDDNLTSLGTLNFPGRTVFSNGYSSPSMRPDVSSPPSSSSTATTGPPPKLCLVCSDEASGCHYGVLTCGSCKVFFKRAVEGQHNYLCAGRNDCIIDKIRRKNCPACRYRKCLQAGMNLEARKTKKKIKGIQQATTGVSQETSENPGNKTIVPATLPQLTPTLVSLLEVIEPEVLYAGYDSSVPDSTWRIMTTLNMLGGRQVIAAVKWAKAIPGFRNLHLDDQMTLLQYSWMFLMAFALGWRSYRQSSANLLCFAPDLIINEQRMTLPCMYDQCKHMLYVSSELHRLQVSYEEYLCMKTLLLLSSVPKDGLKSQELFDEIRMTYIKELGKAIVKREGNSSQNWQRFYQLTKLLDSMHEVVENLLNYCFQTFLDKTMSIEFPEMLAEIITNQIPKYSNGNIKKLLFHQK

Glucocorticoid receptor [9] = target: T3, Glucocorticoid receptor; assay type: functional; remark: listed apart in the source
Androgen receptor = target: T4, Androgen receptor (Homo sapiens, UniProt P10275)
T4 sequence (P10275 whole entry): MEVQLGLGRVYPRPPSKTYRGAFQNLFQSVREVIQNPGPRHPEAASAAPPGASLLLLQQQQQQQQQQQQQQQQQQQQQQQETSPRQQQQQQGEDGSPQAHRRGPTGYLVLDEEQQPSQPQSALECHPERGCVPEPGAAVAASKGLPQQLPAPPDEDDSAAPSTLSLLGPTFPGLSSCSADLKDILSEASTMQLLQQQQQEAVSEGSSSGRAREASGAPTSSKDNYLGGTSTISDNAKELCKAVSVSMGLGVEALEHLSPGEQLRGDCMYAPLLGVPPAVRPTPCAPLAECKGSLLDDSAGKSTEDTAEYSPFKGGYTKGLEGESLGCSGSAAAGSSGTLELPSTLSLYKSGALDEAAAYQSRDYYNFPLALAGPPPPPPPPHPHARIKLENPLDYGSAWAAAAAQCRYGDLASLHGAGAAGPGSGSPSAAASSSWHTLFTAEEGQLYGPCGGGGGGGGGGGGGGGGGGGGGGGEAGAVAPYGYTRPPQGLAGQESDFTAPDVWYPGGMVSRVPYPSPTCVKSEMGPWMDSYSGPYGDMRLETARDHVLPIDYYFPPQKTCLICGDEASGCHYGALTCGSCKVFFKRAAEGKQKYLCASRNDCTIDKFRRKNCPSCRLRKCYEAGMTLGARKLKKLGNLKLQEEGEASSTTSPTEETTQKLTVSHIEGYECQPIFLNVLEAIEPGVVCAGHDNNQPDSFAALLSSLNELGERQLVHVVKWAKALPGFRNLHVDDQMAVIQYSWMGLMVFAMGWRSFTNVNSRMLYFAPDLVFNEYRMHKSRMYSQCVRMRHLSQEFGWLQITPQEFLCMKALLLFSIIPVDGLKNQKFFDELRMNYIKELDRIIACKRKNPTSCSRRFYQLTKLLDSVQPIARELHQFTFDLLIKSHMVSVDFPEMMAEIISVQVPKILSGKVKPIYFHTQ
Note: assay procedure not described here.

Sequence of Neurotensin receptor type 1 (P30989 whole entry): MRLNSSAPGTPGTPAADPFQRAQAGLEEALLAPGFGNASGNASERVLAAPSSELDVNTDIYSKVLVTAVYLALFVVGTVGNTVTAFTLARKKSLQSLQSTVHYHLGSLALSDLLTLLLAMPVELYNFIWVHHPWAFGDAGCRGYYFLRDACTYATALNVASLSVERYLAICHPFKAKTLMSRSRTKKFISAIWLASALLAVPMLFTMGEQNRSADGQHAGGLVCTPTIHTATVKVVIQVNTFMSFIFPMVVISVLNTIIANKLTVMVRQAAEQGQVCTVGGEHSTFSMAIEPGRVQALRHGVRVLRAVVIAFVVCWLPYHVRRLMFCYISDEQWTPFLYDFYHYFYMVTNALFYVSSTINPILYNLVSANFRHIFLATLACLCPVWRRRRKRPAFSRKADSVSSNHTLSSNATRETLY
Sequence of Beta-3 adrenergic receptor (P13945 whole entry): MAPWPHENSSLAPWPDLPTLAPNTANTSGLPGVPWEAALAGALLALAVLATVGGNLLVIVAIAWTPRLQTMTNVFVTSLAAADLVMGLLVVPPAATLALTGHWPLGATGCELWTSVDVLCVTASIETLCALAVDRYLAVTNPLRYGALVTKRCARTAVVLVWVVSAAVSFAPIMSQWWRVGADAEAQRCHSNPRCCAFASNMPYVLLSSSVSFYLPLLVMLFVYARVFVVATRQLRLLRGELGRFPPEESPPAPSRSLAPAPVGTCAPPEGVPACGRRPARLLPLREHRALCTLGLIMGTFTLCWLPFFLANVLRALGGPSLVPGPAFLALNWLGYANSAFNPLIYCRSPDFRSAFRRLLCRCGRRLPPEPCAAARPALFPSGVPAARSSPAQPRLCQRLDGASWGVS
Sequence of Receptor tyrosine-protein kinase erbB-2 (P04626 whole entry): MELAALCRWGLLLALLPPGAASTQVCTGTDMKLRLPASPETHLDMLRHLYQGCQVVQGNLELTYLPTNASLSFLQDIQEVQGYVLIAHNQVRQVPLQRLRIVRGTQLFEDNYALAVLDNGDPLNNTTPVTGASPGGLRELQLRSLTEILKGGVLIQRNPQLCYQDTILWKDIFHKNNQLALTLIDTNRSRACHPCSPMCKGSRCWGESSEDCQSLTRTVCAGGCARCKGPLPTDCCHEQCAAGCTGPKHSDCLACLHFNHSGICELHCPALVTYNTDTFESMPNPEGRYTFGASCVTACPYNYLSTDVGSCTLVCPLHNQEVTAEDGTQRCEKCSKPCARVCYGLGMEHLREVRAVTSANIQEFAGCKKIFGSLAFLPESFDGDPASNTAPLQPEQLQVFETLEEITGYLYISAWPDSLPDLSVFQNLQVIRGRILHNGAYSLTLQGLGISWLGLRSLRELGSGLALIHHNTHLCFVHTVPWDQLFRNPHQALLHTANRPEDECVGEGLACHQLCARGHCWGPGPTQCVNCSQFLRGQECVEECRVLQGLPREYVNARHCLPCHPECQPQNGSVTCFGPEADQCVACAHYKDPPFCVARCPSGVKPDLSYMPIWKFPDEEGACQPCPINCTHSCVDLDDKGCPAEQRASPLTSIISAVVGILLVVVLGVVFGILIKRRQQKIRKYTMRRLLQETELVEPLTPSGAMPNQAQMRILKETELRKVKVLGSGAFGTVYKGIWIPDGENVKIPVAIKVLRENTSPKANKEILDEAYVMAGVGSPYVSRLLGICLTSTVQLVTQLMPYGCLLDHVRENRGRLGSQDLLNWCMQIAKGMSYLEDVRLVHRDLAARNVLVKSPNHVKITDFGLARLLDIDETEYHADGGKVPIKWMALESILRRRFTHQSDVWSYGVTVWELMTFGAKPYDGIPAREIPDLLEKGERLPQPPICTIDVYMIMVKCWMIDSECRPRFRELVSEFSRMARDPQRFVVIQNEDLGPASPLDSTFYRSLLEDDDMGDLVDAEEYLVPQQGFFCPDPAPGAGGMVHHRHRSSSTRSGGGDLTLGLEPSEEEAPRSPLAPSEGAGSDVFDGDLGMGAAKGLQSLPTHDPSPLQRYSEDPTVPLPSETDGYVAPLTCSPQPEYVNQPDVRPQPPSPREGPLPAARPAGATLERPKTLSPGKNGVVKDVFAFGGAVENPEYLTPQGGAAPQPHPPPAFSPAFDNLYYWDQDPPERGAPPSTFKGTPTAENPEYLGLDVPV
Sequence of Epidermal growth factor receptor (P00533 whole entry): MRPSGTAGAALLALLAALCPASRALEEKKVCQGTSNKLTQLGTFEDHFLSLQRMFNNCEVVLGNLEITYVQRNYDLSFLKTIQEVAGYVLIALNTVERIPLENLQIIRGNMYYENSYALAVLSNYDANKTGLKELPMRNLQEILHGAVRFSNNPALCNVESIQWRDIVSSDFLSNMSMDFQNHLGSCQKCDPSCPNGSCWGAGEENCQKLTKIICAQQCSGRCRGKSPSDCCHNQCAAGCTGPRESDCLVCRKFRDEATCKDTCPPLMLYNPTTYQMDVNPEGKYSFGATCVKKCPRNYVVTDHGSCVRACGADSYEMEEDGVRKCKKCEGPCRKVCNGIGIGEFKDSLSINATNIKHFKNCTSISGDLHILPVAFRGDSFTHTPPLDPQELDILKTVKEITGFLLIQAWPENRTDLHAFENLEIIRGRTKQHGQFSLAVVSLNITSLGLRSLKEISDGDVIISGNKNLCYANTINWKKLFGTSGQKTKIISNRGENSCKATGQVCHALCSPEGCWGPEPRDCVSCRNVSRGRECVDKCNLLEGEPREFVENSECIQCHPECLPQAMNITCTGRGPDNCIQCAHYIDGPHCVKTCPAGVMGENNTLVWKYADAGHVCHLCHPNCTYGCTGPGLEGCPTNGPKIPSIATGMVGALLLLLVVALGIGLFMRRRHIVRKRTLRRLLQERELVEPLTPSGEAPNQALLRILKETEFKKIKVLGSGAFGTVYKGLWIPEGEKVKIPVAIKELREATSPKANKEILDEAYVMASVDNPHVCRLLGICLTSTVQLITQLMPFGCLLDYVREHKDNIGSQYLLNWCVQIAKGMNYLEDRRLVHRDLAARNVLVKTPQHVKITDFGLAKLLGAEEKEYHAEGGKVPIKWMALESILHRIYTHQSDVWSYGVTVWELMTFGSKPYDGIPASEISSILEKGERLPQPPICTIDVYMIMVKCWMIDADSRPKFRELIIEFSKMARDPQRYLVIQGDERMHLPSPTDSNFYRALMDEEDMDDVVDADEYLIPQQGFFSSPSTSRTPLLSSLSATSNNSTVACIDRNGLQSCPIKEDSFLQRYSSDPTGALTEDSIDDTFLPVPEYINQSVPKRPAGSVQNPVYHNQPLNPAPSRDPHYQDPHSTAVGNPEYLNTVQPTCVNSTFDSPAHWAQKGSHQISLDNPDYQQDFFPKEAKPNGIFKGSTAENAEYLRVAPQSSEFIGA
Sequence of Substance-P receptor (P25103 whole entry): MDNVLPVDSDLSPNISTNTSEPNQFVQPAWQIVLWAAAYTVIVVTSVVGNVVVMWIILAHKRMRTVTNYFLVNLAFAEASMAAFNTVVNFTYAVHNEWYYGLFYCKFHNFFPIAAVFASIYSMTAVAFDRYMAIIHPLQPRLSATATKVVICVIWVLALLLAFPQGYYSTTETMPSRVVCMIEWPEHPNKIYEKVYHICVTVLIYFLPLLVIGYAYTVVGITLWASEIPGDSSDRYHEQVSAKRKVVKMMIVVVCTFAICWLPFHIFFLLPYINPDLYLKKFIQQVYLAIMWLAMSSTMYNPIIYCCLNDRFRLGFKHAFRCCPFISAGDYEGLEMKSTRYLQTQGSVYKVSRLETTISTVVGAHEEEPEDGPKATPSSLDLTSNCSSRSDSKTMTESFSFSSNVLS
Sequence of 5-hydroxytryptamine receptor 2B (P41595 whole entry): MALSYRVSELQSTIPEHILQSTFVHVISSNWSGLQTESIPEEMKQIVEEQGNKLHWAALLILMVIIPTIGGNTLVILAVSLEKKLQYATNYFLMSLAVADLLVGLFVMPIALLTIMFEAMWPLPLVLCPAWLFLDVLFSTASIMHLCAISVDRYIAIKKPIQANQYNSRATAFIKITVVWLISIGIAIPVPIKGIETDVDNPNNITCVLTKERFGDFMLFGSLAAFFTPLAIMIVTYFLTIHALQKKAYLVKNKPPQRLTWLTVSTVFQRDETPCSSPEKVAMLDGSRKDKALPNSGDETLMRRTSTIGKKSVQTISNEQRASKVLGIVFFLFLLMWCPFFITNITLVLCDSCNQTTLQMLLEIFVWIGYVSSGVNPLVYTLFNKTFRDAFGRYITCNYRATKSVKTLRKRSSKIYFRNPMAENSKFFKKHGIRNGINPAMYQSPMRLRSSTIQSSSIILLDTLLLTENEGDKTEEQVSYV

Cc1c(C(=O)NN2CCCCC2)nn(-c2ccc(Cl)cc2Cl)c1-c1ccc(Cl)cc1 [RIMONABANT]
AC50 [1]: > 10 µM | AC50 [2]: 17 µM | AC50 [3]: > 30 µM | AC50 [4]: > 30 µM | AC50 [5]: 23 µM | AC50 [6]: > 30 µM | AC50 (Substance-P receptor): > 10 µM | AC50 [7]: > 30 µM | AC50 (Glucocorticoid receptor [8]): > 30 µM | AC50 (Glucocorticoid receptor [9]): > 30 µM

C[C@@H](O)[C@H]1C(=O)N2C(C(=O)O)=C(S[C@@H]3CN[C@H](C(=O)N(C)C)C3)[C@H](C)[C@H]12 [MEROPENEM]
AC50 [2]: > 300 µM | AC50 [4]: > 300 µM | AC50 [6]: > 300 µM | AC50 (Glucocorticoid receptor [8]): > 300 µM | AC50 (Glucocorticoid receptor [9]): > 300 µM

C1CCC(C(CC2CCCCN2)C2CCCCC2)CC1 (stereo not drawn) [PERHEXILINE]
AC50 [2]: > 30 µM | AC50 [4]: > 30 µM | AC50 [6]: > 30 µM | AC50 (Glucocorticoid receptor [8]): > 30 µM | AC50 (Glucocorticoid receptor [9]): > 30 µM

C[C@H]1CNCCc2ccc(Cl)cc21 [LORCASERIN]
AC50 [2]: > 30 µM | AC50 [4]: > 30 µM | AC50 [5]: 5.7 µM | AC50 [6]: > 30 µM | AC50 (Glucocorticoid receptor [8]): > 30 µM | AC50 (Glucocorticoid receptor [9]): > 30 µM

Cn1nnc2c(C(N)=O)ncn2c1=O [TEMOZOLOMIDE]
AC50 [1]: > 10 µM | AC50 [2]: > 30 µM | AC50 [3]: > 30 µM | AC50 [4]: > 30 µM | AC50 [5]: > 30 µM | AC50 [6]: > 30 µM | AC50 (Substance-P receptor): > 10 µM | AC50 [7]: > 30 µM

CCCN1C[C@H](CSC)C[C@@H]2c3cccc4[nH]cc(c34)C[C@H]21 [PERGOLIDE]
AC50 [1]: 0.0205 µM | AC50 [2]: > 30 µM | AC50 [3]: 20.8 µM | AC50 [6]: > 30 µM | AC50 [7]: > 30 µM | AC50 (Glucocorticoid receptor [8]): > 30 µM | AC50 (Glucocorticoid receptor [9]): > 30 µM

COc1ccc(CC(C)(C)NC[C@H](O)c2cc(O)cc3c2OCC(=O)N3)cc1 [OLODATEROL]
AC50 [2]: > 30 µM | AC50 [4]: > 30 µM | AC50 [5]: > 30 µM | AC50 [6]: > 30 µM | AC50 (Glucocorticoid receptor [8]): > 30 µM | AC50 (Glucocorticoid receptor [9]): > 30 µM

O=C1Nc2ccc(Cl)cc2[C@@](C#CC2CC2)(C(F)(F)F)O1 [EFAVIRENZ]
AC50 [2]: 18 µM | AC50 [5]: > 30 µM | AC50 (Glucocorticoid receptor [8]): > 30 µM | AC50 (Glucocorticoid receptor [9]): > 30 µM

c1ccc([C@H]2CN3CCSC3=N2)cc1 [LEVAMISOLE]
AC50 [2]: > 30 µM | AC50 [4]: > 30 µM | AC50 [6]: > 30 µM | AC50 (Glucocorticoid receptor [8]): > 30 µM | AC50 (Glucocorticoid receptor [9]): > 30 µM

CC(C)C[C@H]1C(=O)N2CCC[C@H]2[C@]2(O)O[C@](NC(=O)[C@@H]3C=C4c5cccc6[nH]c(Br)c(c56)C[C@H]4N(C)C3)(C(C)C)C(=O)N12 [BROMOCRIPTINE]
AC50 [1]: 0.412 µM | AC50 [2]: > 30 µM | AC50 [3]: 18.9 µM | AC50 [4]: > 30 µM | AC50 [6]: > 30 µM | AC50 [7]: > 30 µM | AC50 (Glucocorticoid receptor [8]): > 30 µM | AC50 (Glucocorticoid receptor [9]): > 30 µM

c1cnc(N2CCN(Cc3ccc4c(c3)OCO4)CC2)nc1 [PIRIBEDIL]
AC50 [2]: > 30 µM | AC50 [4]: > 30 µM | AC50 [6]: > 30 µM | AC50 (Glucocorticoid receptor [8]): > 30 µM | AC50 (Glucocorticoid receptor [9]): > 30 µM

COCCCN1CCC(NC(=O)c2cc(Cl)c(N)c3c2OCC3)CC1 [PRUCALOPRIDE]
AC50 [2]: > 30 µM | AC50 [5]: > 30 µM | AC50 (Glucocorticoid receptor [8]): > 30 µM | AC50 (Glucocorticoid receptor [9]): > 30 µM

O=C(OCC(O)CO)c1ccccc1Nc1ccnc2cc(Cl)ccc12 (stereo not drawn) [GLAFENINE]
AC50 [2]: > 30 µM | AC50 [4]: > 30 µM | AC50 [5]: > 30 µM | AC50 [6]: > 30 µM | AC50 (Androgen receptor): > 30 µM

N[C@@H]1[C@H]2CN(c3nc4c(cc3F)c(=O)c(C(=O)O)cn4-c3ccc(F)cc3F)C[C@@H]12 [TROVAFLOXACIN]
AC50 [2]: > 30 µM | AC50 [4]: > 30 µM | AC50 (Glucocorticoid receptor [8]): > 30 µM | AC50 (Glucocorticoid receptor [9]): > 30 µM

NCC(CC(=O)O)c1ccc(Cl)cc1 (stereo not drawn) [BACLOFEN]
AC50 [1]: > 10 µM | AC50 [2]: > 30 µM | AC50 [3]: > 30 µM | AC50 [4]: > 30 µM | AC50 [6]: > 30 µM | AC50 (Substance-P receptor): > 10 µM | AC50 [7]: > 30 µM | AC50 (Glucocorticoid receptor [8]): > 30 µM | AC50 (Glucocorticoid receptor [9]): > 30 µM

CN(C)CCC=C1c2ccccc2C(C)(C)c2ccccc21
AC50 [2]: > 30 µM | AC50 [4]: > 30 µM | AC50 [5]: 11 µM | AC50 [6]: > 30 µM | AC50 (Glucocorticoid receptor [8]): > 30 µM | AC50 (Glucocorticoid receptor [9]): > 30 µM

CNC1Cc2ccccc2N(C)c2ccccc21 (stereo not drawn) [METAPRAMINE]
AC50 [2]: > 30 µM | AC50 [4]: > 30 µM | AC50 [5]: 29 µM | AC50 [6]: > 30 µM | AC50 (Glucocorticoid receptor [8]): > 30 µM | AC50 (Glucocorticoid receptor [9]): > 30 µM
